Assay results reported in patent US8969312B2, “Low side effect pharmaceutical composition containing antituberculosis drugs” (priority 2011, dated 2015).

Columns and labels:
amidase = assay: Mouse liver microsomal amidase, isoniazid to isonicotinic acid; format: biochemical
Text: Mouse liver microsomes were used as the source of amidase, and isoniazid was used as the amidase metabolism drugs. quantitative isoniazid was catalyzed into metabolites isonicotinic acid (INA) by amidase, and was used as the index for measurement of the amidase activity for establishment of the platform for screening in vitro amidase activity inhibitors. The HPLC system includes a Shimadzu the LC-LOAD pump, 1 Shimadzu system control and a Shimadzu autosampler (Shimadzu Scientific Instrument, Japan). A C18 column (particle size 5 μm, inner diameter of 50×4.6 mm, 25 cm) containing 70% methanol and 30% ammonium formate (50 mM, pH=2.5) of the mobile phase for HPLC separation, and the experimental steps are outlined as follows:
(2) An aliquot of 150 μL mouse liver microsomal solution was added to 100 μL isoniazid solution in 35 μL 67 mM potassium phosphate buffer solution ([…], pH=7) with a final concentration at 3 mM, and then mixed thoroughly with 15 μL amidase inhibitor (deionized water was added in the control group). (3) Incubation at 37° C. water bath for 30 minutes. (4) An aliquot of 300 μL acetonitrile (ACN) was added and mixed thoroughly, and incubated for 6 minutes. (5) An aliquot of 30 μL perchloric acid was then mixed and incubated for 6 minutes. (6) The mixture was centrifuged at 13000 g for 6 minutes. (7) After centrifugation, 100 μL of the supernatant was injected into HPLC. (8) Methanol ammonium formate (50 mM, pH=2.5)=70:30 (V/V) was selected as the mobile phase, and the flow rate was controlled at […] and detected at 270 nm UV. […] The amidase inhibition % was then calculated using the following formula: […]

[1] = target: human liver microsomal cytochrome P450 2E1 (CYP2E1) (Homo sapiens, UniProt P05181); assay: Human liver microsomal CYP2E1, chlorzoxazone 6-hydroxylation;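 further: chlorzoxazone added as substrate, 6-hydroxychlorzoxazone formation quantified by LC/MS/MS after 30 min at 37 °C with NADP+ regenerating system, compared against solvent control without test sample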
Sequence of human liver microsomal cytochrome P450 2E1 (CYP2E1) (P05181 whole entry): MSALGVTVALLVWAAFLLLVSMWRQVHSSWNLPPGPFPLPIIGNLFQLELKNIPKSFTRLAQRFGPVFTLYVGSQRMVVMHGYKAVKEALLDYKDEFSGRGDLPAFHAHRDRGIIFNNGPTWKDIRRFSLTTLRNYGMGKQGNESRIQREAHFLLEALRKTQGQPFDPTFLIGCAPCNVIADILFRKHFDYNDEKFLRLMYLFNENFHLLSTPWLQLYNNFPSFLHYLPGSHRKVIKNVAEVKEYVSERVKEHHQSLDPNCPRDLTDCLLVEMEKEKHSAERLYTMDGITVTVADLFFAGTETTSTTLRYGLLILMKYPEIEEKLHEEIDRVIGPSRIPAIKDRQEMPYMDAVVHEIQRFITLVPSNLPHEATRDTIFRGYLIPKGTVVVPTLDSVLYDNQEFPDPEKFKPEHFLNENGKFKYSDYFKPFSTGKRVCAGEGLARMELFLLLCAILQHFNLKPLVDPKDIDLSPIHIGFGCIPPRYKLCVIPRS
Procedure: (§1) Microsomes prepared from human liver were used to extract cytochrome P450 2E1 (CYP2E1) and CYP2E1 inhibitors were screened from 39 Chinese medicine guiding drugs and 10 excipients. Chlorzoxazone hydroxylation is a reaction catalyzed primarily by CYP2E1 in liver. The extracted human liver microsomal cytochrome P450 2E1 (CYP2E1) was mixed with its substrate, Chlorzoxazone, and test sample was then added Inhibition of CYP2E1 activity was calculated by measuring CYP2E1 standard metabolite, 6-OH-CZX (6-Hydroxy-Chlorzoxazone), and compared with control 6-OH-CZX.
(§2) After incubation, 16 mM Chlorzoxazone and test samples were added to experimental groups; methanol:sterilized water at 1:1 ratio was added to control groups and DDTC was added to positive control groups,
(§3) Finally, cofactor 1 mM NADP^+, 10 mM G6P and 2 IU G6PD were added and reaction mixtures were transferred to pre-incubation 37° C. water bath for 1 mM and activity was measured after 30 min of reaction
(§4) At the end of reaction, 500 μl acetonitrile was added to stop the reaction followed by 5 g/mL 4-hydroxy-tobutamide after 1 mM incubation. The mixture was then centrifuged and 20 L of supernatant was diluted ten times with methanol/sterilized water and 5 L was used for LC/MS/MS analysis. […] The inhibition of CYP2E1 was then calculated by the following equation:

CYP2E1 = CYP2E1 (Homo sapiens, UniProt P05181); assay: as above; settings: human; for inhibition at 30 min, 0.08 % (w/v) / inhibition at 30 min, […] (w/v) / inhibition at 30 min, 16.5 µM / inhibition at 30 min, 33 µM / inhibition at 30 min, 66 µM: human liver microsomes, pH 7.4, probe Chlorzoxazone; for inhibition at 30 min, 0.167 % (w/v): microsomes, pH 7.4
Sequence of CYP2E1 (P05181 whole entry): as above
Procedure: as §1, §2, §3, §4

[2] = Table 6, minimum tested concentration (mg/L) × volume of human liver and intestine (3 L)

| Compound | Amidase inhibition (amidase; 1 uM) | Amidase inhibition (amidase; 10 uM) | Amidase inhibition (amidase; 100 uM) | Minimum Effective Dose [1, 2] | further results |
| --- | --- | --- | --- | --- | --- |
| C=C(C)C1CC=C(C)CC1 (single isomer, unassigned; (+)) [(+)-Limonene] | 5.1 ± 0.4% | 3.2 ± 8.6% | 6.2 ± 3.8% | – | Inhibition of CYP 2E1 ([1]; 16.5 μM): 13.77 ± 1.96%; Inhibition of CYP 2E1 ([1]; 33 μM): 38.05 ± 1.95%; Inhibition of CYP 2E1 ([1]; 66 μM): 63.64 ± 2.74% |
| Oc1cc(O)c2c(c1)O[C@H](c1cc(O)c(O)c(O)c1)[C@H](O)C2 [(−)-Epigallocatechin] | −1.2 ± 2.1% | −7.3 ± 7.6% | 2.2 ± 4.1% | 17 mg | Inhibition of CYP 2E1 ([1]; 16.5 μM): 38.95 ± 1.92%; Inhibition of CYP 2E1 ([1]; 33 μM): 36.40 ± 2.18%; Inhibition of CYP 2E1 ([1]; 66 μM): 57.08 ± 1.85% |
| CC1=CC(=O)NS(=O)(=O)O1 [Acesulfame K] | – | – | – | – | Amidase inhibition (amidase; 0.0005%): −12.4 ± 27.4%; Amidase inhibition (amidase; 0.005%): −167.2 ± 167.3%; Amidase inhibition (amidase; 0.05%): 24.3 ± 4.9%; Minimum Effective Dose ([1]; Table 7): 10 mg; inhibition at 30 min, 0.08 % (w/v) (CYP2E1): 7.1 ± 2.3%; inhibition at 30 min, […] (w/v) (CYP2E1): 3.9 ± 2.7%; inhibition at 30 min, 0.167 % (w/v) (CYP2E1): 14.5 ± 1.9% |
| O=c1cc(-c2ccc(O)cc2)oc2cc(O)cc(O)c12 [Apigenin] | −10.2 ± 20.3% | 13.2 ± 3.4% | – | 15 mg | – |
| O=c1cc(-c2ccccc2)oc2cc(O)c(O)c(O)c12 [Baicalein] | 2.8 ± 15.1% | 5.7 ± 2.6% | 15.6 ± 1.0% | 15 mg | – |
| O=C(O)[C@H]1O[C@@H](Oc2cc3oc(-c4ccccc4)cc(=O)c3c(O)c2O)[C@H](O)[C@@H](O)[C@@H]1O [Baicalin] | 2.1 ± 7.5% | 15.2 ± 6.3% | 34.8 ± 10.2% | 24 mg | – |
| O=C(O)CC(O)(CC(=O)O)C(=O)O [Citric acid] | – | – | – | – | Minimum Effective Dose ([1]; Table 7): 10 mg; inhibition at 30 min, 16.5 µM (CYP2E1): 9.9 ± 3.1%; inhibition at 30 min, 33 µM (CYP2E1): 15.5%; inhibition at 30 min, 66 µM (CYP2E1): 20.5 ± 1.8% |
| O=c1c(-c2ccc(O)cc2)coc2cc(O)ccc12 [Daidzein] | −12.1 ± 6.3% | 1.0 ± 7.4% | 16.2 ± 12.6% | 14 mg | – |
| COc1ccc(-c2cc(=O)c3c(O)cc(O[C@@H]4O[C@H](CO[C@@H]5O[C@@H](C)[C@H](O)[C@@H](O)[C@H]5O)[C@@H](O)[C@H](O)[C@H]4O)cc3o2)cc1O [Diosmin] | 0.3 ± 8.1% | −0.7 ± 7.7% | 1.6 ± 5.1% | 33 mg | – |
| O=c1c(-c2ccc(O)cc2)coc2cc(O)cc(O)c12 [Genistein] | −2.1 ± 46.2% | 1.8 ± 7.6% | 5.8 ± 6.8% | 15 mg | – |
| COc1cc(-c2oc3cc(O)cc(O)c3c(=O)c2O)ccc1O [Isorhamnetin] | 13.8 ± 1.0% | 20.0 ± 4.6% | 31.3 ± 1.3% | 14 mg | – |
| O=c1cc(-c2ccc(O)cc2)oc2cc(O)c([C@@H]3O[C@H](CO)[C@@H](O)[C@H](O)[C@H]3O)c(O)c12 [Isovitexin] | 13.9 ± 2.3% | 5.8 ± 2.7% | 1.1 ± 7.1% | 24 mg | – |
| O.OC[C@H]1O[C@@H](O[C@H]2[C@H](O)[C@@H](O)C(O)O[C@@H]2CO)[C@H](O)[C@@H](O)[C@H]1O (stereo partly drawn) [Lactose monohydrate] | – | – | – | – | Minimum Effective Dose ([1]; Table 7): 18 mg; inhibition at 30 min, 16.5 µM (CYP2E1): 7.8 ± 2.2%; inhibition at 30 min, 33 µM (CYP2E1): 3.9 ± 2.3%; inhibition at 30 min, 66 µM (CYP2E1): 8.7 ± 3.8% |
| O=c1cc(-c2ccc(O)c(O)c2)oc2cc(O[C@@H]3O[C@H](CO)[C@@H](O)[C@H](O)[C@H]3O)cc(O)c12 [Luteolin-7-Glucoside] | 3.2 ± 0.8% | 8.7 ± 1.9% | 12.9 ± 3.1% | 24 mg | Inhibition of CYP 2E1 ([1]; 16.5 μM): 42.96 ± 5.10%; Inhibition of CYP 2E1 ([1]; 33 μM): 55.87 ± 0.67%; Inhibition of CYP 2E1 ([1]; 66 μM): 60.26 ± 1.11% |
| O=c1cc(-c2ccc(O)c(O)c2)oc2cc(O)cc(O)c12 [Luteolin] | 6.1 ± 9.1% | 23.0 ± 6.0% | 47.5 ± 6.2% | 16 mg | – |
| CC1CCC(C(C)C)C(O)C1 (stereo not drawn) [Menthol] | – | – | – | – | Minimum Effective Dose ([1]; Table 7): 8 mg; inhibition at 30 min, 0.08 % (w/v) (CYP2E1): 20.8 ± 2.1%; inhibition at 30 min, […] (w/v) (CYP2E1): 10.5 ± 0.4%; inhibition at 30 min, 0.167 % (w/v) (CYP2E1): 30.8 ± 0.3% |

| Compound | Amidase inhibition (amidase; 1 uM) | Amidase inhibition (amidase; 10 uM) | Amidase inhibition (amidase; 100 uM) | Minimum Effective Dose [1, 2] | further results |
| --- | --- | --- | --- | --- | --- |
| COC(=O)c1ccc(O)cc1 [Methylparaben] | – | – | – | – | Minimum Effective Dose ([1]; Table 7): 8 mg; inhibition at 30 min, 16.5 µM (CYP2E1): 4.6 ± 3.2%; inhibition at 30 min, 33 µM (CYP2E1): -14 ± 2.2%; inhibition at 30 min, 66 µM (CYP2E1): -21.5 ± 2% |
| O=c1c(O)c(-c2ccc(O)cc2O)oc2cc(O)cc(O)c12 [Morin] | −16.6 ± 4.8% | 9.1 ± 1.7% | 59.8 ± 5.1% | 16 mg | – |
| O=c1c(O)c(-c2cc(O)c(O)c(O)c2)oc2cc(O)cc(O)c12 [Myricetin] | 8.0 ± 4.9% | 37.8 ± 8.4% | 56.4 ± 1.5% | 17 mg | – |
| CCCOC(=O)c1ccc(O)cc1 [Propylparaben] | – | – | – | – | Minimum Effective Dose ([1]; Table 7): 9 mg; inhibition at 30 min, 16.5 µM (CYP2E1): -4.1 ± 1.2%; inhibition at 30 min, 33 µM (CYP2E1): -17.2 ± 2.4%; inhibition at 30 min, 66 µM (CYP2E1): -27.3 ± 3.7% |
| O=c1c(O)c(-c2ccc(O)c(O)c2)oc2cc(O)cc(O)c12 [Quercetin] | 48.1 ± 15.0% | 62.3 ± 4.4% | 75.5 ± 2.2% | 16 mg | – |
| O=C([O-])c1ccccc1.[Na+] [Sodium benzoate] | – | – | – | – | Inhibition of CYP 2E1 ([1]; 0.08% (w/v)): 7.8 ± 4.1%; Inhibition of CYP 2E1 ([1]; 0.167% (w/v)): 15.8 ± 0.9%; Minimum Effective Dose ([1]; Table 7): 9 mg; Inhibition of CYP 2E1 ([1]; […] (w/v)): 7.1 ± 2.0% |
| O=S(=O)([O-])NC1CCCCC1.[Na+] [Sodium cyclamate] | – | – | – | – | Inhibition of CYP 2E1 ([1]; 16.5 μM): 9.4 ± 2.7%; Inhibition of CYP 2E1 ([1]; 33 μM): 1.7 ± 4.7%; Inhibition of CYP 2E1 ([1]; 66 μM): 9.1 ± 2.6% |
| CCCCCCCCCCCCOS(=O)(=O)[O-].[Na+] [Sodium lauryl sulfate] | – | – | – | – | Amidase inhibition (amidase; 0.0005%): 9.6 ± 5.0%; Amidase inhibition (amidase; 0.005%): 19.3 ± 2.7%; Amidase inhibition (amidase; 0.05%): 66.1 ± 2.1%; Minimum Effective Dose ([1]; Table 7): 14 mg; inhibition at 30 min, 16.5 µM (CYP2E1): 4.6 ± 1.1%; inhibition at 30 min, 33 µM (CYP2E1): 6.4 ± 0.9%; inhibition at 30 min, 66 µM (CYP2E1): 4.9 ± 1.6% |
| C/C=C/C=C/C(=O)O [Sorbic acid] | – | – | – | – | Minimum Effective Dose ([1]; Table 7): 6 mg; inhibition at 30 min, 16.5 µM (CYP2E1): 8.4 ± 1.6%; inhibition at 30 min, 33 µM (CYP2E1): 10.9 ± 2.1%; inhibition at 30 min, 66 µM (CYP2E1): 14.8 ± 0.1% |
| COc1ccc(-c2oc3cc(O)cc(O)c3c(=O)c2O)cc1O [Tamarixetin] | 3.5 ± 10.5% | 27.9 ± 6.3% | 28.9 ± 4.2% | 17 mg | – |
| O=C/C=C/c1ccccc1 [Trans-Cinnamaldehyde] | – | – | – | 7 mg | – |
| O=c1cc(-c2ccc(O)cc2)oc2c([C@@H]3O[C@H](CO)[C@@H](O)[C@H](O)[C@H]3O)c(O)cc(O)c12 [Vitexin] | – | – | – | 24 mg | – |
| C=CC(=C)CCC=C(C)C [β-Myrcene] | 1.7 ± 1.3% | 6.6 ± 4.1% | 5.8 ± 2.7% | 8 mg | – |
| (−)-Epicatechin-3-gallate | – | – | – | 24 mg | Inhibition of CYP 2E1 ([1]; 16.5 μM): 30.31 ± 1.27%; Inhibition of CYP 2E1 ([1]; 33 μM): 34.84 ± 1.72%; Inhibition of CYP 2E1 ([1]; 66 μM): 42.92 ± 0.65% |
| Magnesium stearate | – | – | – | – | Inhibition of CYP 2E1 ([1]; 16.5 μM): 2.0 ± 1.0%; Inhibition of CYP 2E1 ([1]; 33 μM): 3.0 ± 0.7%; Inhibition of CYP 2E1 ([1]; 66 μM): 5.0 ± 1.6% |
